# Data taken from patent US11977074B2, “Affinity-based detection of ligand-encoded synthetic biomarkers” (Massachusetts Institute of Technology, priority 2013, dated 2024).
# Where no end group is shown, it is not given here.
# What was measured:
# thrombin [1] = molecular target: T1, thrombin (Homo sapiens, UniProt P00734); assay type: biochemical; set-up: with recombinant thrombin (15 nM; Haematologic Technologies); purchased Haematologic Technologies; details: R3 in tandem with thrombin-sensitive substrate on NWs; vs samples not exposed to thrombin
# Excerpt: Following in vitro substrate cleavage by thrombin, the peptide fragments were collected by size-exclusion filtration.
# thrombin [2] = molecular target: T2, thrombin (Mus musculus, UniProt P19221); experiment: Urinary reporters in collagen/epinephrine thrombosis model by ELISA and LFA; assay type: in vivo, mice
# T2 construct: from tissue; host or cells: blood and pulmonary thrombi of live Swiss Webster mice (thromboplastin or collagen/epinephrine induced)
# Procedure: Collection and analysis of urinary peptides. […] Urine collection times were optimized from previous studies using these disease models^[30, 31] and are dependent on site of disease and rate of enzymatic substrate cleavage. Reporter concentration in unprocessed urine was assayed by above protocols from urine diluted 1:10^2L10^4 for ELISA or 1:4-5 for LFA. Data was analyzed using receiver-operator characteristic (ROC) curves (both) and Wilcoxon signed rank test (CRC) or Mann-Whitney test (thrombosis).
# Immediately following infusion, mice were placed over 96-well plates enclosed by a cylindrical tube to collect urine for 30 m (thrombosis model) or 1 h (tumor model). Urine collection times were optimized from previous studies using these disease models^[30, 31] and are dependent on site of disease and rate of enzymatic substrate cleavage. Urine was stored at −80° C. directly following collection.
# Unprocessed urine was diluted (1:100-1:10,000) in 1× PBS with 1% w/v BSA and reporters were quantified by ELISA (at least 2 replicates) using standards as described above. Urine was applied to lateral flow test strips in 5 μL volume, at 1:4 (thrombosis model) or 1:5 (CRC model) dilution. Lateral flow tests were performed in triplicate as described above and test strips were allowed to dry and were quantified by automated script as described above. ELISA and LFA data was analyzed using a Wilcoxon signed rank test (CRC) and a Mann-Whitney test (thrombosis).
# Urine concentration is dependent on many host and environmental factors (e.g. diet, activity level, medical history, circadian rhythm); therefore, we sought to develop a normalization strategy for the test. It was hypothesized that co-administered free reporters would pass into the urine independent of disease state and could be used to normalize the level of reporters released by protease activity.
# MMP9 = molecular target: T3, MMP9 (Homo sapiens, UniProt P14780); experiment: Fluorogenic NW assay with recombinant MMP9; assay type: biochemical; details: inhibitor 100 μM
# T3 construct: purchased R&D Systems
# Procedure: Fluorescent reporter-bound thrombin- or MMP-sensitive NWs (substrates PLGLRSW, SEQ ID NO: 3, or PLGVRGK, SEQ ID NO: 4, respectively) were introduced to recombinant thrombin or MMP9 (respectively). Release of homoquenched fluorophores upon proteolysis was read as increased fluorescence by plate reader at 37° C. Inhibitors Argatroban or Marimastat were incubated with the protease-NW cocktail at 100 μM. To quantify reporter release by LFA, reporter-functionalized NWs were incubated with cognate proteases, passed through a 30 kDa MW cutoff filter, quantified by LFA, and analyzed by Mann-Whitney test.
# (SpectroMax Gemini EM microplate reader). Argatroban (Sigma) or Marimastat (Tocris) were incubated with the NW-protease cocktail at 100 μM final concentration. To assay proteolytic reporter release by LFA, reporter-functionalized enzyme sensitive NWs were incubated with MMP9 or thrombin as above at 37° C. for four hours and passed through a 30 kDa MW cutoff centrifugal filter. The filtered reporters were diluted to within LFA dynamic range and assayed by LFA as described below. Reporter stability experiments were performed using reporter 3 (1 μM) mixed in 1% w/v BSA with recombinant thrombin or MMP9 (both 15 nM) as above to 100 μL final volume and were incubated at 37° C. for 1 h. […]
# thrombin [3] = molecular target: T1, thrombin; experiment: Fluorogenic NW assay with recombinant thrombin; assay type: biochemical; set-up: with recombinant thrombin (15 nM; Haematologic Technologies); purchased Haematologic Technologies; details: inhibitor 100 μM
# thrombin [4] = molecular target: T2, thrombin; experiment: Urinary monitoring of thromboplastin-induced thrombosis by ELISA; assay type: in vivo, mice; details: bivalirudin 10 mg/kg; thromboplastin 2 μl per g b.w.
# Procedure: ELISA detection of bifunctionalized reporters: 96-well plates (Thermo Scientific) were incubated with either 0.8 μg/mL of anti-Flsc (GeneTex, GTX19224) or 0.4 μg/mL of anti-Alex Fluor 488 (Invitrogen, A11094) diluted in PBS overnight at 4° C. Plates were blocked with 1% w/v bovine serum albumin (Sigma) in PBS for 1 hr before 100 μL of samples were added. Reporters captured on the plate were then detected by adding 100 μL of 0.2 μg/mL neutravidin-HRP (Pierce), developed with 50 μL TMB solution (Thermo Scientific) for 5-15 minutes and quenched with 50 μL of HCl before the absorbance of the wells was determined by microplate analysis (SpectraMax Plus, Molecular Devices) at 450 nm. Plates were washed 3× with PBST between each steps and incubation occurred at RT unless otherwise stated.
# Urinary monitoring of thrombosis. Experiments were conducted in a paired setup. […] Urine samples were stored at −80° C. until ELISA analysis.
# The concentration of analytes in the urine is mainly dependent on the hydration state of the host (ranging from 50-1200 mOsm/kg H2O in humans)^[20] and is affected by many external factors (e.g. circadian rhythm, diet, activity, and others). […]
# thrombin [5] = molecular target: T1, thrombin; experiment: Fluorogenic NW assay with purified thrombin; assay type: biochemical; set-up: mixed with human thrombin (2 μM); purchased Haematologic Technologies; details: bivalirudin 5 mg/mL, pre-incubated two minutes
# Procedure: In vitro protease assays: NWs (200 nM by peptide) were mixed with human thrombin (2 μM), FVIIa (10 nM), FIXa (90 nM), FXa (160 nM), FXIa (31 nM), and activated protein C (60 nM, Haematologic Technologies) in a 384-well plate at 37° C. in activity buffers according to the manufacturer's instructions and monitored with a microplate reader (SpectroMax Gemini EM). […] For thrombin inhibition experiments, bivalirudin (Anaspec) was added to a final concentration of 5 mg/mL and pre-incubated for two minutes prior to addition of NWs.
# To test substrate specificity, fluorophore-labeled derivatives were conjugated onto NWs at a valency sufficient to produce homoquenched substrates (˜40 peptides per NW) and then incubated the NWs with purified thrombin or a panel of blood clotting proteases (FXa, APC, FIXa, FVIIa, FXIa), each present at its maximal physiological concentration during thrombosis (FIG. 1B).
# Swiss Webster mice = experiment: Thromboplastin-induced thrombosis, VT750-fibrin(ogen) deposition in organs; assay type: in vivo; details: bivalirudin 10 mg/kg i.v. five minutes prior to thromboplastin
# Procedure: Characterization of thromboplastin-induced thrombosis: Each vial of thromboplastin containing 3-4 mg (from rabbit brain, Sigma) was dissolved in 2 mL of PBS. To quantify fibrin deposition, bovine fibrinogen (Sigma) was reacted with 3-fold molar excess of VT750 for 1 hr at RT, and purified by centrifugal size filtration (size cutoff, Millipore). Swiss Webster mice (Taconic) were lightly anesthetized with isofluorane and administered mixtures of VT750-fibrinogen (1 nmol by VT750) with thromboplastin (n=3 mice per dose) via tail vein injections. After 30 minutes, mice were euthanized by CO2 asphyxiation and organs were scanned on the LI-COR Odyssey Infrared Imaging System. Fibrin(ogen) fluorescence in each organ was quantified using ImageJ software (NIH). To test thrombin inhibition, mice were intravenously administered bivalirudin (10 mg/kg) five minutes prior to co-injection of thromboplastin. […]
# We next investigated the ability of the synthetic biomarkers to detect thrombosis in living mice induced via intravenous (i.v.) administration of thromboplastin. […] To quantify PE formation, mice were co-injected with thromboplastin and the clot precursor fibrinogen (labeled with the near-infrared fluorophore VT750) so that the formation of fibrin clots by thrombin-mediated proteolysis of fibrinogen could be quantified by fluorescence analysis of whole organs (FIG. 3A). […]
# MMP = experiment: Urinary reporters in LS174T colorectal tumor model by ELISA and LFA; assay type: in vivo, mice; details: urine test, ELISA
# Procedure: Collection and analysis of urinary peptides. […] Reporter concentration in unprocessed urine was assayed by above protocols from urine diluted 1:10^2L10^4 for ELISA or 1:4-5 for LFA. Data was analyzed using receiver-operator characteristic (ROC) curves (both) and Wilcoxon signed rank test (CRC) or Mann-Whitney test (thrombosis).
# Immediately following infusion, mice were placed over 96-well plates enclosed by a cylindrical tube to collect urine for 30 m (thrombosis model) or 1 h (tumor model). […] Urine was stored at −80° C. directly following collection.
# T3 sequence (P14780 94-707, species assumed): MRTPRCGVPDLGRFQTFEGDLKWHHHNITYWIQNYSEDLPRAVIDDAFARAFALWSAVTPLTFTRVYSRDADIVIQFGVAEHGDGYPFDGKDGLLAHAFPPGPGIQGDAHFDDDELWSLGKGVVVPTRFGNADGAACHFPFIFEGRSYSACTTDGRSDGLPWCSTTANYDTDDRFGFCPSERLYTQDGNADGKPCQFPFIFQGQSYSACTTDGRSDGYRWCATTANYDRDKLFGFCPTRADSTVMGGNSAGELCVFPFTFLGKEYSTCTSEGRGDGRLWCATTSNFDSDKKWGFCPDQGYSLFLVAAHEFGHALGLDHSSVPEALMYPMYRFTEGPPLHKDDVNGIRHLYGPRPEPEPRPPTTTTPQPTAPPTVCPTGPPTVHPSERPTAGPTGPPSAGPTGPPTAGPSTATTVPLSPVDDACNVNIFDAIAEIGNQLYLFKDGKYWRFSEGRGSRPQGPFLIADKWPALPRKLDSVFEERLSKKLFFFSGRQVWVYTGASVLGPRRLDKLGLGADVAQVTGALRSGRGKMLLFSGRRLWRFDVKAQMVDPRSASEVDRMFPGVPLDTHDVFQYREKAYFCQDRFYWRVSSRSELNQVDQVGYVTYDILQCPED
compound,measurement,setting,value
TMR-GluFib-Biotin [Reporter R3],detection of cleaved reporter from filtrate by LFA after thrombin cleavage,thrombin [1],readily detected
same,urinary level of reporter normalized against R4 in mice harboring thrombi,thrombin [2]; ELISA,significantly increased
same,urinary level of reporter of thrombin activity in mice harboring thrombi,"thrombin [2]; ELISA, quantified independently",significantly increased
same,ratio of R3/R4 in diseased urine vs healthy controls,thrombin [2]; multiplexed paper strip (LFA),statistically significant increase
CNC(=O)[C@@H](NC(=O)[C@H](CC(C)C)[C@H](O)C(=O)NO)C(C)(C)C [Marimastat],activity of MMP9 on MMP-sensitive NWs in presence of inhibitor,MMP9,no activity
CC1CNc2c(cccc2S(=O)(=O)N[C@@H](CCCNC(=N)N)C(=O)N2CC[C@@H](C)C[C@@H]2C(=O)O)C1 (stereo partly shown) [Argatroban],fluorescence of thrombin-sensitive NWs with thrombin in presence of inhibitor,thrombin [3],No increase in fluorescence
bivalirudin,urinary reporter levels in mice treated with inhibitor prior to thrombotic challenge,thrombin [4],abrogated
same,proteolysis of NWs by thrombin in the presence of inhibitor,thrombin [5],negligible proteolysis
same,formation of PEs in pretreated animals,Swiss Webster mice,readily prevented
"MMP-sensitive NWs: PEG-coated iron oxide nanoworms with MMP9-cleavable substrate PLGVRGK and fluorescein, VT750 or R2 reporter (also: on PEG-coated iron oxide nanoworms, fluorescein, VT750 or R2 reporter)","ROC a.u.c, discrimination of CRC",MMP,0.90
